The values below come from US11306071B2, “Heterocyclic compounds as adenosine antagonists” (Nuvation Bio Inc., priority 2019, dated 2022).

One may read the inhibition as the share of the control response that was lost under treatment. As usually defined, the IC50 is the concentration needed to halve the response being measured.

Test [1] concerns the target adenosine A1 (human) membrane (Homo sapiens (Human), UniProt P30542). The experiment in a line: A1 adenosine receptor radioligand binding assay ([3H] DPCPX). The following applies: 200 nM compound; radioligand [3H] DPCPX 1 nM. As to the method:
A second A1 adenosine receptor radioligand binding assay protocol was used. The protocol used adenosine A1 (human) membrane (PerkinElmer ES-010-M400UA) at a concentration of 2.5 μg/well/100 μl and the radioligand [3H] DPCPX (Cat No. PerkinElmer-NET974250UC) at a final concentration of 1 nM. Testing compounds were tested at a final concentration of 200 nM. CGS-15943, the reference compound, was tested in an 8-point 4-fold serial dilution, starting at a top concentration of 1 μM. 1 μl of compounds/high control/low control was transferred to the assay plate according to a plate map, followed by 100 μl of membrane stocks and 100 μl of radioligand, in assay buffer (25 mM HEPES, 5 mM MgCl2, 1 mM CaCl2, 100 mM NaCl, pH 7.4). The plate was sealed and incubated at RT for 1 hour. Unifilter-96 GF/C filter plates (Perkin Elmer Cat #6005174) were soaked with 50 μl of 0.3% PEI per well for at least 0.5 hour at room temperature. When the binding assays were completed, the reaction mixtures were filtered through GF/C plates using Perkin Elmer Filtermate Harvester, and each plate washed 4 times with cold wash buffer (25 mM HEPES, 5 mM MgCl2, 1 mM CaCl2, 100 mM NaCl, pH 7.4). The filter plates were dried for 1 hour at 50 degrees. After drying, the bottom of the filter plate wells was sealed, 50 μl of Perkin Elmer Microscint 20 cocktail was added, and the top of the filter plate was sealed. ^3H trapped on the filter was counted using Perkin Elmer MicroBeta2 Reader. The data were analyzed with GraphPad Prism 5 to obtain binding IC50 values for the reference compound. The “Inhibition [% Control]” was calculated using the equation: % Inh=(1-Background subtracted Assay value/Background subtracted HC value)*100, where HC is high control.

The target of test [2] is HEK-293 cells expressing human recombinant adenosine A2A receptor (Homo sapiens (Human), UniProt P29274). The experiment in a line: cAMP assay (Assay 2), A2A receptor. It is filed as cell-based. As to the method: The functional activity of compounds was tested using Assay 2, below, to detect the presence of cAMP. Assay 1 is an alternative assay for this purpose. Activation of G-protein coupled receptors (such as A2A) results in activation of adenylyl cyclase which converts ATP into cAMP which is used as a downstream signaling molecule. Therefore, molecules which act as GPCR (or specifically A2A receptor) antagonists cause a decrease in intracellular cAMP concentration.
HEK-293 cells expressing human recombinant adenosine A2A receptor, sequence (P29274 whole entry): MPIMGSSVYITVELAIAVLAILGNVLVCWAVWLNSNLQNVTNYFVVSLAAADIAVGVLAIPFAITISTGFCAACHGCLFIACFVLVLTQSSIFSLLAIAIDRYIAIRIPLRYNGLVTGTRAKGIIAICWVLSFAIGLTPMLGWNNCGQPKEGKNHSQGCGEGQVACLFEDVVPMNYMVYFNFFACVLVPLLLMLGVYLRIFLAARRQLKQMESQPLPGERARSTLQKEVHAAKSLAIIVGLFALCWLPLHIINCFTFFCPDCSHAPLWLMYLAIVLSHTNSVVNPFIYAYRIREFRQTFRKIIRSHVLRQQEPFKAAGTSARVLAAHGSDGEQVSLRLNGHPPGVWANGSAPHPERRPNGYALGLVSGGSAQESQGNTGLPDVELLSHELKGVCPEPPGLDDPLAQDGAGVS
Assay 2 (Table B2): This assay used HEK-293 cells expressing human recombinant adenosine A2A receptor (or, alternatively, A1 receptor) that were grown prior to the test in media without antibiotic. 100 nL of test articles at 100x of final concentration were transferred to assay plate by Echo. Cells were washed twice with 5 mL of PBS and 10 μL of cells were mixed with 5 mL PBS. After aspirating the PBS and adding 1.5 mL versine, cells were incubated at 37° C. for 2-5 min. After centrifugation, 4 mL of medium was added and adjusted cell density to 5,000 cells/well with Stimulation Buffer. 10 μL of cells were aliquoted to the assay plate, centrifuged at 1000 rpm for 1 minute, and incubated for 60 minutes at room temperature. 5 μL 4× Eu-cAMP tracer solution and 5 μL 4× Ulight™-anti-cAMP solution were added to assay plate, followed by centrifugation and 60-minute incubation at room temperature. Plates were read on EnVision.
(cAMP levels reflect the balance of adenylyl cyclase and phosphodiesterase activity.)

In test [3] the target is adenosine A2a (human) membrane (Homo sapiens (Human), UniProt P29274). Put plainly: A2A adenosine receptor radioligand binding assay ([3H] CGS-21680). The following applies: radioligand [3H] CGS-21680 6 nM. The protocol: A second A2A adenosine receptor radioligand binding assay protocol was used. The protocol used adenosine A2a (human) membrane (PerkinElmer RBHA2AM400UA) at a concentration of 5 μg/well/100 μl and the radioligand [3H] CGS-21680 (Cat No. PerkinElmer-NET1021250UC) at a final concentration of 6 nM. Testing compounds were diluted with DMSO to make 8-point 4-fold serial dilution, starting at 0.2 mM. CGS-15943 was the reference compound. 1 μl of compounds/high control/low control was transferred to the assay plate according to a plate map, followed by 100 μl of membrane stocks and 100 μl of radioligand, in assay buffer (50 mM Tris-HCl, 10 mM MgCl2, 1 mM EDTA, pH 7.4). The plate was sealed and incubated at RT for 2 hours. Unifilter-96 GF/C filter plates (Perkin Elmer Cat #6005174) were soaked with 50 μl of 0.3% PEI per well for at least 0.5 hour at room temperature. When the binding assays were completed, the reaction mixtures were filtered through GF/C plates using Perkin Elmer Filtermate Harvester, and each plate washed 4 times with cold wash buffer (50 mM Tris-HCl, 154 mM NaCl, pH 7.4). The filter plates were dried for 1 hour at 50 degrees. After drying, the bottom of the filter plate wells was sealed, 50 μl of Perkin Elmer Microscint 20 cocktail was added, and the top of the filter plate was sealed. ^3H trapped on the filter was counted using Perkin Elmer MicroBeta2 Reader. The data were analyzed with GraphPad Prism 5 to obtain binding IC50 values. The “Inhibition [% Control]” was calculated using the equation: % Inh=(1-Background subtracted Assay value/Background subtracted HC value)*100, where HC is high control.
adenosine A2a (human) membrane, sequence (P29274 whole entry): as above

adenosine A1 (human) membrane, sequence (P30542 whole entry): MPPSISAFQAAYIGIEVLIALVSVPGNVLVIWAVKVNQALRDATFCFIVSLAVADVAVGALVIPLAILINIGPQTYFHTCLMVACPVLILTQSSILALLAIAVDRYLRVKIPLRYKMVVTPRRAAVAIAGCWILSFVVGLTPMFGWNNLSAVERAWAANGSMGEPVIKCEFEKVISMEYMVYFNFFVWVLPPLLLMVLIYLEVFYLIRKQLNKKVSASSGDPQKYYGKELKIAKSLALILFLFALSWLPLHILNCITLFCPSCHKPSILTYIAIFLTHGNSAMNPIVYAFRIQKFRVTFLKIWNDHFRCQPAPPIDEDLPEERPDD

As for `Cc1c(C#N)cccc1-c1nc(N)cnc1-c1cc(Cl)c2ncccc2c1` [2-2, 3-(6-amino-3-(8-chloroquinolin-6-yl)pyrazin-2-yl)-2-methylbenzonitrile], 0.2 µM produced 30% inhibition in test [1]. Also, the IC50 in test [2] came to 327 nM.
For the molecule `CC(NC(=O)c1nc(-c2cc(Cl)c3ncccc3c2)c(-c2ccn(C)n2)nc1N)c1cccc(C#N)n1` (stereo not shown) [Compound No. 99, 3-amino-6-(8-chloroquinolin-6-yl)-N-(1-(6-cyanopyridin-2-yl)ethyl)-5-(1-methyl-1H-pyrazol-3-yl)pyrazine-2-carboxamide], the IC50 in test [2] was determined as 72 nM.
Molecule `CC(NC(=O)c1nc(-c2ccc3ncccc3c2)c(-c2ccccc2)nc1N)c1cccc(C#N)n1` (stereo not shown) [Compound No. 111, 3-amino-N-(1-(6-cyanopyridin-2-yl)ethyl)-5-phenyl-6-(quinolin-6-yl)pyrazine-2-carboxamide] showed an IC50 in test [3] of 3.9 nM. The inhibition at 0.2 µM in test [1] came out at 92%.
In the same order, the values of `C[C@@H](NC(=O)c1nc(-c2cc(Cl)c3[nH]ncc3c2)c(-c2ccn(C)n2)nc1N)c1ccccn1` [Compound No. 112, (R)-3-amino-6-(7-chloro-1H-indazol-5-yl)-5-(1-methyl-1H-pyrazol-3-yl)-N-(1-(pyridin-2-yl)ethyl)pyrazine-2-carboxamide] are 1.6 nM and 77%.
In the same order, the values of `C[C@@H](NC(=O)c1nc(-c2cc(Cl)c3ncccc3c2)c(-c2ccccc2)nc1N)c1ccccn1` [Compound No. 113, (R)-3-amino-6-(8-chloroquinolin-6-yl)-5-phenyl-N-(1-(pyridin-2-yl)ethyl)pyrazine-2-carboxamide] are 4.7 nM and 58%.
Molecule `CC(NC(=O)c1nc(-c2cc(Cl)c3ncccc3c2)c(-c2ccccc2)nc1N)c1cccc(C#N)n1` (stereo not shown) [Compound No. 114, 3-amino-6-(8-chloroquinolin-6-yl)-N-(1-(6-cyanopyridin-2-yl)ethyl)-5-phenylpyrazine-2-carboxamide] displayed an IC50 in test [3] of 3.5 nM. The inhibition at 0.2 µM in test [1] was determined as 95%.
The like results for `C[C@@H](NC(=O)c1nc(-c2ccc3ncccc3c2)c(-c2ccccc2)nc1N)c1cccc(C#N)n1` [Compound No. 115, (R)-3-amino-N-(1-(6-cyanopyridin-2-yl)ethyl)-5-phenyl-6-(quinolin-6-yl)pyrazine-2-carboxamide] were, in that order, 64 nM and 74%.
In turn, `C[C@H](NC(=O)c1nc(-c2ccc3ncccc3c2)c(-c2ccccc2)nc1N)c1cccc(C#N)n1` [Compound No. 116, (S)-3-amino-N-(1-(6-cyanopyridin-2-yl)ethyl)-5-phenyl-6-(quinolin-6-yl)pyrazine-2-carboxamide] had an IC50 in test [3] of 5.4 nM. The inhibition at 0.2 µM in test [1] was found to be 98%.
Consider `C[C@@H](NC(=O)c1nc(-c2ccc3ncccc3c2)c(-c2cccc(C#N)c2)nc1N)c1cccc(C#N)n1` [Compound No. 117, (R)-3-amino-5-(3-cyanophenyl)-N-(1-(6-cyanopyridin-2-yl)ethyl)-6-(quinolin-6-yl)pyrazine-2-carboxamide], for which, in test [3], the IC50 was 269 nM. The molecule further had an inhibition at 0.2 µM in test [1] of 56%.
The like results for `C[C@H](NC(=O)c1nc(-c2ccc3ncccc3c2)c(-c2cccc(C#N)c2)nc1N)c1cccc(C#N)n1` [Compound No. 118, (S)-3-amino-5-(3-cyanophenyl)-N-(1-(6-cyanopyridin-2-yl)ethyl)-6-(quinolin-6-yl)pyrazine-2-carboxamide] were, in that order, 16 nM and 92%.
For `CC(NC(=O)c1nc(-c2cc(Cl)c3ncccc3c2)c(-c2ccccc2)nc1N)c1ccccn1` (stereo not shown) [Compound No. 119, 3-amino-6-(8-chloroquinolin-6-yl)-5-phenyl-N-(1-(pyridin-2-yl)ethyl)pyrazine-2-carboxamide], in test [3], the IC50 turned out to be 12 nM. Also, the “A1 binding inhibition at 200 nM (%)” value in test [1] was found to be 92%.
Turning to `CC(NC(=O)c1nc(-c2ccc3ncccc3c2)c(-c2ccccc2)nc1N)c1ncccn1` (stereo not shown) [Compound No. 120, 3-amino-5-phenyl-N-(1-(pyrimidin-2-yl)ethyl)-6-(quinolin-6-yl)pyrazine-2-carboxamide], the IC50 in test [3] stood at 6.8 nM. In test [1], at 0.2 µM the inhibition was 45%.
The like results for `C[C@@H](NC(=O)c1nc(-c2cc(Cl)c3ncccc3c2)c(-c2ccccc2)nc1N)c1cccc(C#N)n1` [Compound No. 121, (R)-3-amino-6-(8-chloroquinolin-6-yl)-N-(1-(6-cyanopyridin-2-yl)ethyl)-5-phenylpyrazine-2-carboxamide] were, in that order, 1.1 nM and 80%.
For `C[C@@H](NC(=O)c1nc(-c2cc(Cl)c3ncccc3c2)c(-c2ccccc2)nc1N)c1ccccn1` [Compound No. 123, (R)-3-amino-6-(8-chloroquinolin-6-yl)-5-phenyl-N-(1-(pyridin-2-yl)ethyl)pyrazine-2-carboxamide], the IC50 in test [3] came out at 1.1 nM. The “A1 binding inhibition at 200 nM (%)” value in test [1] came to 89%.
In turn, `CC(NC(=O)c1nc(-c2ccc3ncccc3c2)c(-c2ccn(C)n2)nc1N)c1cccc(C#N)n1` (stereo not shown) [Compound No. 127, 3-amino-N-(1-(6-cyanopyridin-2-yl)ethyl)-5-(1-methyl-1H-pyrazol-3-yl)-6-(quinolin-6-yl)pyrazine-2-carboxamide] gave a 50% inhibitory concentration (IC50) in test [3] of 3.9 nM. The same molecule yielded an inhibition at 0.2 µM in test [1] of 84%.
In the case of `C[C@H](NC(=O)c1nc(-c2ccc3ncccc3c2)c(-c2ccccc2)nc1N)c1cnccn1` [Compound No. 129, (S)-3-amino-5-phenyl-N-(1-(pyrazin-2-yl)ethyl)-6-(quinolin-6-yl)pyrazine-2-carboxamide], in test [3], the IC50 turned out to be 3.9 nM. The inhibition at 0.2 µM in test [1] stood at 61%.
Molecule `CC(NC(=O)c1nc(-c2ccc3ncccc3c2)c(-c2ccn(C)n2)nc1N)c1ccccn1` (stereo not shown) [Compound No. 459, 3-amino-5-(1-methyl-1H-pyrazol-3-yl)-N-(1-(pyridin-2-yl)ethyl)-6-(quinolin-6-yl)pyrazine-2-carboxamide] registered an IC50 in test [3] of 4.7 nM.
In test [3], `CC(NC(=O)c1nc(-c2ccc3ncccc3c2)c(-c2ccn(C)n2)nc1N)c1ncccn1` (stereo not shown) [Compound No. 460, 3-amino-5-(1-methyl-1H-pyrazol-3-yl)-N-(1-(pyrimidin-2-yl)ethyl)-6-(quinolin-6-yl)pyrazine-2-carboxamide] yielded a concentration for half-maximal inhibition (IC50) of 7.3 nM.
For the molecule `CCN(CC)CCNc1nc(-c2ccc3ncccc3c2)c(-c2ccccc2)nc1N` [compound 1, N2-(2-(diethylamino)ethyl)-5-phenyl-6-(quinolin-6-yl)pyrazine-2,3-diamine], the half-maximal inhibitory concentration (IC50) in test [2] turned out to be 262 nM.
